Patent publication US8466311B2, “Neuroprotective compositions and methods” (Sanford-Burnham Medical Research Institute, priority 2006, dated 2013)
“Also recorded” adds a separate entry of the source.

Test system: GSH
Experiment: Total GSH levels in cortical cultures
Format: cell-based
Details: cortical cultures, control 46.8±4.5 nmol/mg protein
Method: Cell cultures, transfection, and glutathione (GSH) measurement. […] Transfection was performed with Lipofectamine 2000 (Invitrogen). In the reporter gene assays, firefly luciferase activity in cell lysates was measured with a luminometer (Promega). Total GSH (reduced and oxidized) was determined as described (Lee et al., Biochem. Biophys. Res. Commun. 280:286-292, 2001).
One caveat to the mechanism of NEPP and other electrophilic compounds acting at the level of Keap1 to induce HO-1 transcription is that NEPP could potentially react indiscriminately with other thiol-containing compounds in cells. To approach this question, we assessed cellular glutathione (GSH) levels to determine whether NEPP11 would affect this abundant antioxidant thiol. Nepp11 or N-ethylmaleimide (NEM) was added at t=0 and levels of total GSH were measured at the indicated times. GSH content of control cortical cultures (set arbitrarily at 100%) was 46.8±4.5 nmol/mg protein. […] In fact, this scenario seems likely, because the Keap1/Nrf2 pathway regulates the expression of γ-GCL in addition to HO-1 (Itoh et al., Mol. Cell. Biol. 24:36-45, 2004). […]
Transfections were performed with Lipofectamine 2000 (Invitrogen), and firefly luciferase activity in cell lysates was measured with a luminometer in the reporter gene assays (Promega).

Compound: COC(=O)CCCCC/C=C1/C(=O)C=C[C@H]1CCCCCCc1ccc(C)cc1 [NEPP11]
- total GSH levels: did not deplete GSH levels; also recorded: transiently increased
